Assay results from ChEMBL document CHEMBL1255495, “Experimental conditions that enhance potency of an antibacterial oligo-acyl-lysyl” (2010).
In brackets after ≈: the same amount, converted by molar mass. Activity calls are given as the source filed them. The calls are words filed in the database; no cut-off is given here.

Assays:
[1] = system: Listeria monocytogenes; assay: Antibacterial activity against Listeria monocytogenes ATCC 19115 after 24 hrs by microdilution method in presence of 160 mM MgCl2; type: functional; conditions: ATCC 19115, 24 h
[2] = system: Staphylococcus aureus; assay: Antibacterial activity against methicillin-resistant Staphylococcus aureus ATCC 43300 at pH 7 after 24 hrs by microdilution method; type: functional; conditions: ATCC 43300, 24 h
[3] = system: Lipid bilayer; assay: Binding affinity to phospholipid membrane model at pH 8.5 by surface plasmon resonance in presence of 140 mM NaCl
[4] = system: Listeria monocytogenes; assay: Antibacterial activity against Listeria monocytogenes ATCC 19115 at pH 7 after 24 hrs by microdilution method; type: functional; conditions: ATCC 19115, 24 h
[5] = system: Escherichia coli; assay: Antibacterial activity against Escherichia coli O157:H7 ATCC 43894 at pH 8.5 after 24 hrs by microdilution method; type: functional; conditions: O157:H7 ATCC 43894, 24 h
[6] = system: Listeria monocytogenes; assay: Antibacterial against Listeria monocytogenes ATCC 19115 at pH 8.5 after 24 hrs at 48 degC by microdilution method in presence of 85 mM NaCl; type: functional; conditions: ATCC 19115, 24 h
[7] = system: Escherichia coli; assay: Antibacterial activity against Escherichia coli O157:H7 ATCC 43894 after 24 hrs by microdilution method in presence of 80 mM MgCl2; type: functional; conditions: O157:H7 ATCC 43894, 24 h
[8] = system: Staphylococcus aureus; assay: Antibacterial activity against methicillin-resistant Staphylococcus aureus isolate 15903 assessed as reduction in bacterial population at 0.01 to 10 uM up to 15 mins by time-kill assay; type: functional
[9] = system: Listeria monocytogenes; assay: Antibacterial activity against Listeria monocytogenes ATCC 19115 after 24 hrs by microdilution method in presence of 20 mM MgCl2; type: functional; conditions: ATCC 19115, 24 h
[10] = system: Escherichia coli; assay: Antibacterial activity against Escherichia coli O157:H7 ATCC 43894 after 24 hrs at 37 degC by microdilution method; type: functional; conditions: O157:H7 ATCC 43894, 24 h
[11] = system: Escherichia coli; assay: Antibacterial activity against Escherichia coli O157:H7 ATCC 43894 after 24 hrs by microdilution method in presence of 1030 mM NaCl; type: functional; conditions: O157:H7 ATCC 43894, 24 h
[12] = system: Escherichia coli; assay: Antibacterial activity against Escherichia coli O157:H7 ATCC 43894 after 72 hrs at 4 degC by microdilution method; type: functional; conditions: O157:H7 ATCC 43894, 72 h
[13] = system: Staphylococcus aureus; assay: Ratio of MIC for methicillin-resistant Staphylococcus aureus isolate 15903 in presence of 85 mM NaCl to MIC for methicillin-resistant Staphylococcus aureus isolate 15903 at pH 8.5 after 24 hrs at 48 degC in presence of 85 mM NaCl; type: functional
[14] = system: Escherichia coli; assay: Antibacterial activity against Escherichia coli O157:H7 ATCC 43894 at pH 3.5 after 24 hrs by microdilution method; type: functional; conditions: O157:H7 ATCC 43894, 24 h
[15] = system: Escherichia coli; assay: Antibacterial activity against Escherichia coli O157:H7 ATCC 43894 after 24 hrs by microdilution method in presence of 160 mM MgCl2; type: functional; conditions: O157:H7 ATCC 43894, 24 h
[16] = system: Escherichia coli; assay: Antibacterial activity against Escherichia coli O157:H7 ATCC 43894 after 24 hrs at 25 degC by microdilution method; type: functional; conditions: O157:H7 ATCC 43894, 24 h
[17] = system: Escherichia coli; assay: Antibacterial activity against Escherichia coli O157:H7 ATCC 43894 after 24 hrs by microdilution method in presence of 515 mM NaCl; type: functional; conditions: O157:H7 ATCC 43894, 24 h
[18] = system: Listeria monocytogenes; assay: Antibacterial activity against Listeria monocytogenes ATCC 19115 after 24 hrs by microdilution method in presence of 1030 mM NaCl; type: functional; conditions: ATCC 19115, 24 h
[19] = system: Listeria monocytogenes; assay: Antibacterial activity against Listeria monocytogenes ATCC 19115 after 24 hrs by microdilution method in presence of 80 mM MgCl2; type: functional; conditions: ATCC 19115, 24 h
[20] = system: Staphylococcus aureus; assay: Antibacterial activity against methicillin-resistant Staphylococcus aureus isolate 15903 after 24 hrs at 37 degC by microdilution method; type: functional; conditions: isolate 15903, 24 h
[21] = system: Staphylococcus aureus; assay: Antibacterial activity against methicillin-resistant Staphylococcus aureus isolate 15903 after 24 hrs by microdilution method in presence of 1030 mM NaCl; type: functional; conditions: isolate 15903, 24 h
[22] = system: Staphylococcus aureus; assay: Antibacterial activity against methicillin-resistant Staphylococcus aureus isolate 15903 after 24 hrs by microdilution method in presence of 170 mM NaCl; type: functional; conditions: isolate 15903, 24 h
[23] = system: Listeria monocytogenes; assay: Antibacterial activity against Listeria monocytogenes ATCC 19115 at pH 8.5 after 24 hrs by microdilution method; type: functional; conditions: ATCC 19115, 24 h
[24] = system: Escherichia coli; assay: Antibacterial activity against Escherichia coli O157:H7 ATCC 43894 after 24 hrs by microdilution method in presence of 20 mM MgCl2; type: functional; conditions: O157:H7 ATCC 43894, 24 h
[25] = system: Listeria monocytogenes; assay: Antibacterial activity against Listeria monocytogenes ATCC 19115 assessed as reduction in bacterial population at 0.01 to 10 uM up to 15 mins by time-kill assay; type: functional
[26] = system: Listeria monocytogenes; assay: Antibacterial activity against Listeria monocytogenes ATCC 19115 at pH 3.5 after 24 hrs by microdilution method; type: functional; conditions: ATCC 19115, 24 h
[27] = system: Listeria monocytogenes; assay: Antibacterial activity against Listeria monocytogenes ATCC 19115 after 24 hrs by microdilution method in presence of 85 mM NaCl; type: functional; conditions: ATCC 19115, 24 h
[28] = system: Listeria monocytogenes; assay: Antibacterial activity against Listeria monocytogenes ATCC 19115 after 24 hrs at 25 degC by microdilution method; type: functional; conditions: ATCC 19115, 24 h
[29] = system: Listeria monocytogenes; assay: Ratio of MIC for Listeria monocytogenes ATCC 19115 in presence of 85 mM NaCl to MIC for Listeria monocytogenes ATCC 19115 at pH 8.5 after 24 hrs at 48 degC in presence of 85 mM NaCl; type: functional

CCCCCCCCCCCC(=O)N[C@@H](CCCCN)C(=O)NCCCCCCCC(=O)N[C@@H](CCCCN)C(=O)NCCCCCCCC(=O)N[C@@H](CCCCN)C(=O)NCCCCCCCC(=O)N[C@@H](CCCCN)C(=O)NCCCCCCCC(=O)N[C@@H](CCCCN)C(=O)NCCCCCCCC(=O)N[C@@H](CCCCN)C(=O)NCCCCCCCC(=O)N[C@@H](CCCCN)C(=O)NCCCCCCCC(=O)N[C@@H](CCCCN)C(N)=O
MIC [1]: 25 µM | MIC [2]: 50 µM (≈ 111 µg/mL) | Activity [3]: Active | MIC [4]: 1.6 µM (≈ 3.54 µg/mL) | MIC [5]: 1.6 µM (≈ 3.54 µg/mL) | MIC [6]: 0.05 µM | MIC [7]: 12.5 µM | inhibition (INH) [8]: 99% | MIC [9]: 3.1 µM | MIC [10]: 3.1 µM (≈ 6.86 µg/mL) | MIC [11]: 12.5 µM | MIC [12]: 6.3 µM (≈ 13.9 µg/mL) | Ratio [13]: 16 | MIC [14]: > 50 µM | MIC [15]: 50 µM | MIC [16]: 3.1 µM (≈ 6.86 µg/mL) | MIC [17]: 6.3 µM | MIC [18]: 12.5 µM | MIC [19]: 12.5 µM | MIC [20]: 12.5 µM (≈ 27.7 µg/mL) | MIC [21]: > 50 µM | MIC [22]: 50 µM | MIC [23]: 0.8 µM (≈ 1.77 µg/mL) | MIC [24]: 3.1 µM | inhibition (INH) [25]: 99% | MIC [26]: > 50 µM | MIC [27]: 1.6 µM | MIC [28]: 3.1 µM (≈ 6.86 µg/mL) | Ratio [29]: 32
